Among the data in the Kinase Knowledgebase extract (Sharma et al. 2016) are IC50 values, retold here.

In the experiment the target is EGFR (UniProt P00533).
EGFR, sequence (P00533 whole entry, looked up): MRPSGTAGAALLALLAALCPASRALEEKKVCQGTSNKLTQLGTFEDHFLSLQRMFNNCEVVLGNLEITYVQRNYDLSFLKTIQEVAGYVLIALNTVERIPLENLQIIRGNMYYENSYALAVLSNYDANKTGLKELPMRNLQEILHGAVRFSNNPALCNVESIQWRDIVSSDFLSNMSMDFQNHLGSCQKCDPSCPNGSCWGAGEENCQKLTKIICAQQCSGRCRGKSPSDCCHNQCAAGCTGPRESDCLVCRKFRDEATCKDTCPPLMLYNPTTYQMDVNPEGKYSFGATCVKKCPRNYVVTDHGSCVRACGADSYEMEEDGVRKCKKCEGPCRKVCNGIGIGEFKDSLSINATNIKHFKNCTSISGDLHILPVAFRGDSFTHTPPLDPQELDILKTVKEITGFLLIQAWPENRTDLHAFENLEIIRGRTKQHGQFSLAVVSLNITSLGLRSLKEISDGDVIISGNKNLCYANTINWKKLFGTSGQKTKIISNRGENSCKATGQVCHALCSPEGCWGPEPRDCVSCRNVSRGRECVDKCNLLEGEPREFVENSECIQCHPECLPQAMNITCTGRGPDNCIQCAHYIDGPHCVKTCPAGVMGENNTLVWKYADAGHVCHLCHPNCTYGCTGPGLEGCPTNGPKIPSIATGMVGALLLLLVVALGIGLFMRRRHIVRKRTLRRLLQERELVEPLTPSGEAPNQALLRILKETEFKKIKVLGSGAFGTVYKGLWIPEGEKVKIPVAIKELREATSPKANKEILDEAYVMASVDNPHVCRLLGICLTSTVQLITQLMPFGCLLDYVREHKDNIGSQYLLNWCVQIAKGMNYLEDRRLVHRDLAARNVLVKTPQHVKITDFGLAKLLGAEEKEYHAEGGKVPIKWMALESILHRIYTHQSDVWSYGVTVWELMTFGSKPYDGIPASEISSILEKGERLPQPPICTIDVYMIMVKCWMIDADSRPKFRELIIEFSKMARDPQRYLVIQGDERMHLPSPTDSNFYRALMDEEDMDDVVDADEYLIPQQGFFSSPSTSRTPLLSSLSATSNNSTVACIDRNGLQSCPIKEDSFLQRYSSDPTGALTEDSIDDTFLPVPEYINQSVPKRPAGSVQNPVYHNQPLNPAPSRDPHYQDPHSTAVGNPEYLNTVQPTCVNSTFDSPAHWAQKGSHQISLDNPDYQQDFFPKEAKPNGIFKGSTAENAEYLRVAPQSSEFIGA

The compound `CNC(=O)Nc1coc2ccccc2c1=O` had an IC50 of more than 100 µM. In the case of `CCNC(=O)NC1=CS(=O)(=O)c2ccccc2C1=O`, the IC50 was more than 100 µM. `CN(C)C(=O)Nc1coc2ccccc2c1=O`: the IC50 was more than 100 µM.

The compound `CCCCNC(=O)Nc1csc2ccccc2c1=O` had an IC50 of more than 100 µM. Regarding `CCNC(=O)Nc1coc2ccccc2c1=O`, the IC50 is more than 100 µM. The figure for `O=c1cc(-c2ccc(O)cc2)oc2cc(O)cc(O)c12` is 25 µM; for `CCNC(=O)Nc1csc2ccccc2c1=O` it is more than 100 µM.

`CN(C)Cc1coc2ccccc2c1=O` showed an IC50 of more than 100 µM. As for `CCCCNC(=O)Nc1coc2ccccc2c1=O`, the IC50 is more than 100 µM. `CCOC(=O)NC(=O)Nc1csc2ccccc2c1=O` had an IC50 of more than 100 µM.

As to `CC(C)NC(=O)Nc1coc2ccccc2c1=O`, the IC50 is more than 100 µM.

`CC(C)(C)NC(=O)Nc1coc2ccccc2c1=O` displayed an IC50 of more than 100 µM. The figure for `CCNC(=O)Nc1csc2ccc(F)cc2c1=O` is more than 100 µM; for `O=C(O)C(=O)Nc1csc2ccccc2c1=O` it is more than 100 µM. On to `O=C(O)C(=O)Nc1cc(=O)c2ccccc2s1`, for which the IC50 was more than 100 µM.

`O=C(CCO)Nc1csc2ccccc2c1=O`: the IC50 is more than 100 µM. Next, `CCC(=O)Nc1csc2ccccc2c1=O`: more than 100 µM. Next, `CNC(=O)Nc1csc2ccccc2c1=O`: more than 100 µM. Regarding `CCNC(=O)Nc1csc2ccc(OC)cc2c1=O`, the IC50 is more than 100 µM. `O=c1cc(-c2ccccc2)oc2ccccc12` showed an IC50 of 50 µM.

Regarding `COC(=O)C(=O)Nc1csc2ccccc2c1=O`, the IC50 is more than 100 µM. Next, `CCNC(=O)Nc1csc2ccc(C)cc2c1=O`: more than 100 µM.
